Target: Recombinant human ULK1 (1-649) (Homo sapiens (Human), UniProt O75385)
Experiment: ULK1 ADP Glo kinase activity assay, new method (ULKtide peptide substrate)
Conditions: 25° C., 40 minutes, read-out: ULK1 biochemical IC50
In short: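 Kinase activity was read as ADP production (ADP-Glo, luminescence 30 min after detection reagent) following a 40-min, 25 °C reaction of Sf9-expressed GST-ULK1 (1-649) with ULKtide substrate and ATP. Compounds ran as 12-point series starting at 10 μM; four-parameter curve fitting versus DMSO wells gave IC50.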

Sequence of Recombinant human ULK1 (1-649) (O75385 1-649): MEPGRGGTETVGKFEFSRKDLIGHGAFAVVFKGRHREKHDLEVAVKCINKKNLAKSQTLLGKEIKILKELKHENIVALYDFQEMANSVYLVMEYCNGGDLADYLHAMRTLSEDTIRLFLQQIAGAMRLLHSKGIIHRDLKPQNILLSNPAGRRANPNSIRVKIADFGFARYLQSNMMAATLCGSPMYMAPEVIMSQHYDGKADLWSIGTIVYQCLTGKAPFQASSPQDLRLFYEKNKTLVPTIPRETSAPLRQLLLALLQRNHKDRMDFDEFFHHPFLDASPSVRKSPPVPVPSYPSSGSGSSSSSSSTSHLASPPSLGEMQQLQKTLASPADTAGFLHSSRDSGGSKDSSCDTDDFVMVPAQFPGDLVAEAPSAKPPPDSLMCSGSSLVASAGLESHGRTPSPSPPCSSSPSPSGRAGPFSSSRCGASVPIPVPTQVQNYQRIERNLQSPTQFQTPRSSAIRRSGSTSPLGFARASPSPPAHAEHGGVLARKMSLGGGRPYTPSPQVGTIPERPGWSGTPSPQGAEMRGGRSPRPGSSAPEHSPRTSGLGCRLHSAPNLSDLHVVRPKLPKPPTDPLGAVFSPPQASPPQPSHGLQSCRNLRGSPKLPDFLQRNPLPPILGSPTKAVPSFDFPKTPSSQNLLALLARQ

| Compound | IC50 |
| --- | --- |
| C[C@H]1CN(c2ccc(Nc3ncc(C(F)(F)F)c(-c4cc5c(s4)C(=O)N(C4CC4)CCS5(=O)=O)n3)c(C3CC3)c2)CCN1C [Example 332, (S)-4-cyclopropyl-7-(2-((2-cyclopropyl-4-(3,4-dimethylpiperazin-1-yl)phenyl)amino)-5-(trifluoromethyl)pyrimidin-4-yl)-3,4-dihydrothieno[2,3-f][1,4]thiazepin-5(2H)-one 1,1-dioxide] | ≤ 5 nM |
| CCc1cc(N2C[C@@H]3C[C@H]2CN3)ccc1Nc1ncc(C(F)(F)F)c(-c2cc3c(s2)C(=O)N(C2COC2)CCS3(=O)=O)n1 [Example 335, 7-(2-((4-((1S,4S)-2,5-diazabicyclo[2.2.1]heptan-2-yl)-2-ethylphenyl)amino)-5-(trifluoromethyl)pyrimidin-4-yl)-4-(oxetan-3-yl)-3,4-dihydrothieno[2,3-f][1,4]thiazepin-5(2H)-one 1,1-dioxide] | ≤ 5 nM |
| CCc1cc(N2C[C@H]3C[C@@H]2CN3)ccc1Nc1ncc(C(F)(F)F)c(-c2cc3c(s2)C(=O)N(C2COC2)CCS3(=O)=O)n1 [Example 336, 7-(2-((4-((1R,4R)-2,5-diazabicyclo[2.2.1]heptan-2-yl)-2-ethylphenyl)amino)-5-(trifluoromethyl)pyrimidin-4-yl)-4-(oxetan-3-yl)-3,4-dihydrothieno[2,3-f][1,4]thiazepin-5(2H)-one 1,1-dioxide] | ≤ 5 nM |
| CCc1cc(N2C[C@H]3CC[C@@H](C2)N3)ccc1Nc1ncc(C(F)(F)F)c(-c2cc3c(s2)C(=O)N(C2COC2)CCS3(=O)=O)n1 [Example 337, 7-(2-((4-((1R,5S)-3,8-diazabicyclo[3.2.1]octan-3-yl)-2-ethylphenyl)amino)-5-(trifluoromethyl)pyrimidin-4-yl)-4-(oxetan-3-yl)-3,4-dihydrothieno[2,3-f][1,4]thiazepin-5(2H)-one 1,1-dioxide] | ≤ 5 nM |
| O=C1c2sc(-c3nc(Nc4ccc(N5CC6CC(C5)N6)cc4C4CC4)ncc3C(F)(F)F)cc2S(=O)(=O)CCN1C1CC1 [Example 338, 7-(2-((4-(3,6-diazabicyclo[3.1.1]heptan-3-yl)-2-cyclopropylphenyl)amino)-5-(trifluoromethyl)pyrimidin-4-yl)-4-cyclopropyl-3,4-dihydrothieno[2,3-f][1,4]thiazepin-5(2H)-one 1,1-dioxide] | ≤ 5 nM |
| CN1C2CC1CN(c1ccc(Nc3ncc(C(F)(F)F)c(-c4cc5c(s4)C(=O)N(C4CC4)CCS5(=O)=O)n3)c(C3CC3)c1)C2 [Example 339, 4-cyclopropyl-7-(2-((2-cyclopropyl-4-(6-methyl-3,6-diazabicyclo[3.1.1]heptan-3-yl)phenyl)amino)-5-(trifluoromethyl)pyrimidin-4-yl)-3,4-dihydrothieno[2,3-f][1,4]thiazepin-5(2H)-one 1,1-dioxide] | ≤ 5 nM |
| O=C1c2sc(-c3nc(Nc4ccc(N5CC6CC(C5)N6)cc4C4CC4)ncc3C(F)(F)F)cc2S(=O)(=O)CCN1C1COC1 [Example 340, 7-(2-((4-(3,6-diazabicyclo[3.1.1]heptan-3-yl)-2-cyclopropylphenyl)amino)-5-(trifluoromethyl)pyrimidin-4-yl)-4-(oxetan-3-yl)-3,4-dihydrothieno[2,3-f][1,4]thiazepin-5(2H)-one 1,1-dioxide] | ≤ 5 nM |
| O=C1c2sc(-c3nc(Nc4ccc(N5CCN[C@@H](CO)C5)cc4C4CC4)ncc3C(F)(F)F)cc2S(=O)(=O)CCN1C1CC1 [Example 345, (R)-4-cyclopropyl-7-(2-((2-cyclopropyl-4-(3-(hydroxymethyl)piperazin-1-yl)phenyl)amino)-5-(trifluoromethyl)pyrimidin-4-yl)-3,4-dihydrothieno[2,3-f][1,4]thiazepin-5(2H)-one 1,1-dioxide] | ≤ 5 nM |
| CCc1cc(N2C[C@@H]3C[C@H]2CN3C)ccc1Nc1ncc(C(F)(F)F)c(-c2cc3c(s2)C(=O)N(C2COC2)CCS3(=O)=O)n1 [Example 346, 7-(2-((2-Ethyl-4-((1S,4S)-5-methyl-2,5-diazabicyclo[2.2.1]heptan-2-yl)phenyl)amino)-5-(trifluoromethyl)pyrimidin-4-yl)-4-(oxetan-3-yl)-3,4-dihydrothieno[2,3-f][1,4]thiazepin-5(2H)-one 1,1-dioxide] | 5 to 10 nM |
| CCc1cc(N2C[C@H]3C[C@@H]2CN3C)ccc1Nc1ncc(C(F)(F)F)c(-c2cc3c(s2)C(=O)N(C2COC2)CCS3(=O)=O)n1 [Example 347, 7-(2-((2-ethyl-4-((1R,4R)-5-methyl-2,5-diazabicyclo[2.2.1]heptan-2-yl)phenyl)amino)-5-(trifluoromethyl)pyrimidin-4-yl)-4-(oxetan-3-yl)-3,4-dihydrothieno[2,3-f][1,4]thiazepin-5(2H)-one 1,1-dioxide] | ≤ 5 nM |
| CCc1cc(N2C[C@H]3CC[C@@H](C2)N3C)ccc1Nc1ncc(C(F)(F)F)c(-c2cc3c(s2)C(=O)N(C2COC2)CCS3(=O)=O)n1 [Example 348, 7-(2-((2-ethyl-4-((1R,5S)-8-methyl-3,8-diazabicyclo[3.2.1]octan-3-yl)phenyl)amino)-5-(trifluoromethyl)pyrimidin-4-yl)-4-(oxetan-3-yl)-3,4-dihydrothieno[2,3-f][1,4]thiazepin-5(2H)-one 1,1-dioxide] | ≤ 5 nM |
| CN1C2CC1CN(c1ccc(Nc3ncc(C(F)(F)F)c(-c4cc5c(s4)C(=O)N(C4COC4)CCS5(=O)=O)n3)c(C3CC3)c1)C2 [Example 349, 7-(2-((2-cyclopropyl-4-(6-methyl-3,6-diazabicyclo[3.1.1]heptan-3-yl)phenyl)amino)-5-(trifluoromethyl)pyrimidin-4-yl)-4-(oxetan-3-yl)-3,4-dihydrothieno[2,3-f][1,4]thiazepin-5(2H)-one 1,1-dioxide] | ≤ 5 nM |
| CN1CCN(c2ccc(Nc3ncc(C(F)(F)F)c(-c4cc5c(s4)C(=O)N(C4CC4)CCS5(=O)=O)n3)c(C3CC3)c2)C[C@@H]1CO [Example 352, (R)-4-cyclopropyl-7-(2-((2-cyclopropyl-4-(3-(hydroxymethyl)-4-methylpiperazin-1-yl)phenyl)amino)-5-(trifluoromethyl)pyrimidin-4-yl)-3,4-dihydrothieno[2,3-f][1,4]thiazepin-5(2H)-one 1,1-dioxide] | ≤ 5 nM |
| CCc1cc(N2CCN[C@@H](C)C2)ccc1Nc1ncc(C(F)(F)F)c(-c2cc3c(s2)C(=O)N(C2CC2)CCS3(=O)=O)n1 [Example 353, (S)-4-cyclopropyl-7-(2-((2-ethyl-4-(3-methylpiperazin-1-yl)phenyl)amino)-5-(trifluoromethyl)pyrimidin-4-yl)-3,4-dihydrothieno[2,3-f][1,4]thiazepin-5(2H)-one 1,1-dioxide] | ≤ 5 nM |

Further lines, results first:

| IC50 | Compound |
| --- | --- |
| ≤ 5 nM | CN1C[C@H]2C[C@@H]1CN2c1ccc(Nc2ncc(C(F)(F)F)c(-c3cc4c(s3)C(=O)N(C3COC3)CCS4(=O)=O)n2)c(C2CC2)c1 [Example 334, 7-(2-((2-cyclopropyl-4-((1R,4R)-5-methyl-2,5-diazabicyclo[2.2.1]heptan-2-yl)phenyl)amino)-5-(trifluoromethyl)pyrimidin-4-yl)-4-(oxetan-3-yl)-3,4-dihydrothieno[2,3-f][1,4]thiazepin-5(2H)-one 1,1-dioxide] |
| ≤ 5 nM | C[C@H]1CN(c2ccc(Nc3ncc(C(F)(F)F)c(-c4cc5c(s4)C(=O)N(C4COC4)CCS5(=O)=O)n3)c(C3CC3)c2)CCN1 [Example 341, (S)-7-(2-((2-Cyclopropyl-4-(3-methylpiperazin-1-yl)phenyl)amino)-5-(trifluoromethyl)pyrimidin-4-yl)-4-(oxetan-3-yl)-3,4-dihydrothieno[2,3-f][1,4]thiazepin-5(2H)-one 1,1-dioxide] |
| ≤ 5 nM | C[C@H]1CN(c2ccc(Nc3ncc(C(F)(F)F)c(-c4cc5c(s4)C(=O)N(C4COC4)CCS5(=O)=O)n3)c(C3CC3)c2)CCN1C [Example 342, (S)-7-(2-((2-cyclopropyl-4-(3,4-dimethylpiperazin-1-yl)phenyl)amino)-5-(trifluoromethyl)pyrimidin-4-yl)-4-(oxetan-3-yl)-3,4-dihydrothieno[2,3-f][1,4]thiazepin-5(2H)-one 1,1-dioxide] |
| ≤ 5 nM | C[C@@H]1CN(c2ccc(Nc3ncc(C(F)(F)F)c(-c4cc5c(s4)C(=O)N(C4CC4)CCS5(=O)=O)n3)c(C3CC3)c2)C[C@H](C)N1C [Example 343, 4-Cyclopropyl-7-(2-((2-cyclopropyl-4-((3S,5R)-3,4,5-trimethylpiperazin-1-yl)phenyl)amino)-5-(trifluoromethyl)pyrimidin-4-yl)-3,4-dihydrothieno[2,3-f][1,4]thiazepin-5(2H)-one 1,1-dioxide] |
| ≤ 5 nM | C[C@H]1CN(c2ccc(Nc3ncc(C(F)(F)F)c(-c4cc5c(s4)C(=O)N(C4COC4)CCS5(=O)=O)n3)c(C3CC3)c2)C[C@H](C)N1 [Example 344, 7-(2-((2-Cyclopropyl-4-((3S,5S)-3,5-dimethylpiperazin-1-yl)phenyl)amino)-5-(trifluoromethyl)pyrimidin-4-yl)-4-(oxetan-3-yl)-3,4-dihydrothieno[2,3-f][1,4]thiazepin-5(2H)-one 1,1-dioxide] |
| ≤ 5 nM | C[C@@H]1CN(c2ccc(Nc3ncc(C(F)(F)F)c(-c4cc5c(s4)C(=O)N(C4COC4)CCS5(=O)=O)n3)c(C3CC3)c2)C[C@H](C)N1 [Example 350, 7-(2-((2-cyclopropyl-4-((3S,5R)-3,5-dimethylpiperazin-1-yl)phenyl)amino)-5-(trifluoromethyl)pyrimidin-4-yl)-4-(oxetan-3-yl)-3,4-dihydrothieno[2,3-f][1,4]thiazepin-5(2H)-one 1,1-dioxide] |
| 5 to 10 nM | C[C@H]1CN(c2ccc(Nc3ncc(C(F)(F)F)c(-c4cc5c(s4)C(=O)N(C4COC4)CCS5(=O)=O)n3)c(C3CC3)c2)C[C@H](C)N1C [Example 351, 7-(2-((2-cyclopropyl-4-((3S,5S)-3,4,5-trimethylpiperazin-1-yl)phenyl)amino)-5-(trifluoromethyl)pyrimidin-4-yl)-4-(oxetan-3-yl)-3,4-dihydrothieno[2,3-f][1,4]thiazepin-5(2H)-one 1,1-dioxide] |
